From patent publication US20030229922A1, “Materials and methods for the modification of plant cell wall polysaccharides” (GENESIS RESEARCH AND DEVELOPMENT CORPORATION LTD., priority 1998, published 2003)
Where two headings read alike, the source gives them in different places.

Columns and labels:
[1] = target: T1, Eucalyptus grandis UGP (UDP-glucose pyrophosphorylase), SEQ ID NO: 79 (DNA; protein SEQ ID NO: 103) (Eucalyptus grandis, UniProt B3VDY8); experiment: UGP enzyme assay (purified recombinant protein); type: biochemical; conditions: E. grandis UGP
T1 construct: wild type
Text: Sense constructs containing sequences including the coding regions for UGP (SEQ ID NO: 79) and SUS (SEQ ID NO: 105) from Eucalyptus grandis, and UGP (SEQ ID NO: 80) from Pinus radiata were inserted into the expression vector pET16b (Clontech Laboratories Inc, Palo Alto, Calif.). The resulting constructs were transformed into E. coli XL1-Blue (Stratagene) and induced to produce recombinant protein by the addition of IPTG. Purified proteins were obtained using Ni^2+ column chromatography (Janknecht et al., Proc. Natl. Acad. Sci. USA, 88:8972-8976, 1991).
Enzyme assays for UGP were performed using published methods (Peng and Chang, FEBS Lett. 329:153-158, 1993).

[2] = system: S. tuberosum UGP (Katsube et al.); conditions: cited from earlier work
[3] = system: S. tuberosum UGP (Nakano et al.); conditions: cited from earlier work
[4] = system: V. radiata SUS (sucrose synthase) (Delmer et al.); conditions: SEM n.a.; cited from earlier work

T1 sequence (B3VDY8 entry or part of it): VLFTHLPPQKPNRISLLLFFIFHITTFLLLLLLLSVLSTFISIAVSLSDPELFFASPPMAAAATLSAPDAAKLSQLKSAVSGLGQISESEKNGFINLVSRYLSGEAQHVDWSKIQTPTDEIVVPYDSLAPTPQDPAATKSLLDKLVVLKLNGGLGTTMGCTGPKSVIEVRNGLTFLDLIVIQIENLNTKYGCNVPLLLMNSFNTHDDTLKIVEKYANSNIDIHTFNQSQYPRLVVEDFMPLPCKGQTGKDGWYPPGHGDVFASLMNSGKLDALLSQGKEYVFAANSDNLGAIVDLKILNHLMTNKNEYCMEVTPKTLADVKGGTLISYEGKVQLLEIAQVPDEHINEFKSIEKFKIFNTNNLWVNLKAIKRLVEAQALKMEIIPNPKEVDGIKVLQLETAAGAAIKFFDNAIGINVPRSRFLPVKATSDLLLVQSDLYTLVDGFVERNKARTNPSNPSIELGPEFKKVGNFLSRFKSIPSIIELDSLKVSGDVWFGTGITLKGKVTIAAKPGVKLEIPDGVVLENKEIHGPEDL

Nc1ncnc2c1ncn2[C@@H]1O[C@H](COP(=O)(O)OP(=O)(O)OP(=O)(O)O)[C@@H](O)[C@H]1O [ATP]
KM^ATP [1]: no activity | KM^ATP [2]: no activity | KM^ATP [3]: no activity

O=P(O)(O)O[C@H]1O[C@H](CO)[C@@H](O)[C@H](O)[C@H]1O [G1P]
Km ([2]; read-out: KM^G1P, SEM n.a.): 130 µM | Km ([3]; read-out: KM^G1P, SEM n.a.): 180 µM

OC[C@H]1O[C@@](CO)(O[C@H]2O[C@H](CO)[C@@H](O)[C@H](O)[C@H]2O)[C@@H](O)[C@@H]1O [Sucrose]
Km [4]: 16700 µM

O=c1ccn([C@@H]2O[C@H](COP(=O)(O)OP(=O)(O)OP(=O)(O)O)[C@@H](O)[C@H]2O)c(=O)[nH]1 [UTP]
Km ([2]; read-out: KM^UTP, SEM n.a.): 76 µM | Km ([3]; read-out: KM^UTP, SEM n.a.): 170 µM
